Experimental data taken from US20080051413A1, “Nitrophenylpiperazine derivative of xanthine which relaxes tracheal airway and increases respiratory performance” (KAOHSIUNG MEDICAL UNIVERSITY, priority 2006, published 2008).

How the values were obtained:
[1] = system: carbachol (1 _M)-precontracted guinea pig trachea; assay: Isolated tracheal preparation, measurement of tension; conditions: 100 _M, carbachol (1 _M)-precontracted, EP+
Method: Isolated Tracheal preparation and Measurement of Tension: Guinea pigs (350-450 g) were anesthetized with pentobarbital (70 mg/kg) i.p. and killed by a sharp blow on the neck, followed by cervical dislocation. The trachea was excised, cleaned of adhering fat and connective tissue, cut transversely into four to five rings, and then opened by cutting longitudinally through the cartilage rings diametrically opposite the tracheal smooth muscle (Hwang T L, Wu C C, and Teng C M (1999) YC-1 potentiates nitric oxide-induced relaxation in guinea-pig trachea. Br J Pharmacol 128:577-584). Then trachea rings were suspended in a 10-ml organ bath containing Krebs' solution (118 mM NaCl, 25 mM NaHCO3, 4.7 mM KCl, 1.2 mM KH2PO4, 1.2 mM MgSO4, 11 mM glucose, and 2.5 mM CaCl2, pH 7.3-7.4) maintained at 37_and aerated with 95% O2 and 5% CO2. Each tracheal tissue sample was subjected to 2 g of initial basal tension. All experiments were carried out in the presence of indomethacin (3 _M) and propranolol (1 _M) to prevent the formation of prostanoids and to inhibit _-adrenergic responses, respectively. Isometric tension was recorded with a force displacement transducer (model FT03; Grass Instruments, Quincy, M A). Before the start of measurements, all preparations were allowed to equilibrate with frequent washing for 1 h. They were first contracted with carbachol (1 _M) to determine the contractility of preparations. This was also done at the end of each experiment. The preparations were then washed and allowed to equilibrate with Krebs' solution for 50 min before being contracted a second time with carbachol (1 _M). When stable constriction to carbachol was reached, concentration responses of KMUP-3 (10, 30, and 100 _M) were obtained. Data were expressed as percentages of the maximum contractile response to carbachol (1 _M).
In experiments to examine the role of epithelium in tracheal relaxation, the epithelial cells were removed mechanically by rubbing the internal surface of trachea with a fine silver wire, and the removal of the epithelial layer was confirmed by histological examination as previously described (Wu et al., 2004).
To examine the possible mechanism of tracheal relaxant effects of KMUP-3, the tracheal strips were pretreated with a K^+ channel blocker, tetraethylammonium (TEA; 10 mM); a KATP channel blocker, glibenclamide (1-M); voltage-dependent K^+ channel blocker, 4-aminopyridine (4-AP, 100 _M); Ca^2+-dependent K^+ channel blockers, apamin (1 _M) and charybdotoxin (ChTX; 0.1 _M); a sGC inhibitor, 1H-[1,2,4]oxadiazolo[4,3-a]quinoxalin-1-one (ODQ; 1 _M); an NOS inhibitor, N—nitro-L-arginine methyl ester (L-NAME; 100 _M); and an adenylate cyclase (AC) inhibitor, SQ 22536 (100 _M) for 30 min prior to the addition of KMUP-3 (10, 30, and 100 _M). In the other experiments, TSMs were precontracted with 60 mM KCl to examine the relaxation achieved by KMUP-3. The KCl solution was prepared by substituting NaCl with KCl (60 mM) in an equimolar amount.

[2] = system: guinea pig tracheal smooth muscle cells; assay: Measurement of cAMP in TSMCs; format: cell-based; conditions: for cAMP accumulation versus vehicle (FIG. 6) / cAMP level: 100 _M, 20 min; for cAMP level: basal/vehicle 62.6±6.4
Method: (§1) Cell Culture of Tracheal Smooth Muscle: Guinea pigs (350-450 g) were injected i.p. with a lethal dose of pentobarbital. The tracheas were excised and cut longitudinally through the cartilage. Using a dissecting microscope, TSM strips were dissected from the surrounding parentchyma. The epithelium was removed from the luminal surface, and bands of TSM were gently separated from the underlying connective tissue. Then TSM strips were chopped into small sections (1 mm^3) and incubated in Hanks' balanced salt solution (138 mM NaCl, 4 mM NaHCO3, 5 mM KCl, 0.3 mM KH2PO4, 0.3 mM Na2HPO4, and 1.0 mM glucose) with 0.05% elastase type IV and 0.2% collagenase type IV (Invitrogen, Carlsbad, Calif.) for 30 min at 37_ with gentle shaking. The solution of dissociated smooth muscle cells was centrifuged (6 min at 500 g), and the pellet was resuspended in 1:1 Dulbecco's modified Eagle's medium/Ham's F-12 medium supplemented with 10% fetal bovine serum, 0.244% NaHCO3, and 1% penicillin/streptomycin. Cells were cultured in 25-cm^2 flasks at 37_ in humidified air containing 5% CO2. Confluent cells were detached with 0.25% trypsin-0.02% EDTA at 37_and then subcultured to establish secondary cultures. Cultures were maintained for no more than four passages. They were identified as smooth muscle cells by the typical hill-and-valley appearance, and cellular homogeneity was further confirmed by the presence of smooth muscle specific _-myosin and _-actin immunoreactivity. Indirect immunofluorescence staining for a variety of antigens was carried out by first plating the cells on chamber slides, fixing the cells in 3.7% formaldehyde-phosphate-buffered saline for 10 min, and permeabilizing the cells with phosphate-buffered saline and 0.1% Triton X-100. Cells were then stained with either a mouse monoclonal antibody directed against the amino-terminal 10 amino acids of _-smooth muscle actin or _-myosin (Roche Diagnostics, Indianapolis, Ind.). All cells were stained with fluorescein-labeled goat anti-mouse IgG antibody (Roche Diagnostics).
(§2) Measurement of cAMP and cGMP: Intracellular concentrations of cAMP and cGMP in TSMCs were measured as in our previous reports (Wu B N, Lin R J, Lin C Y, Shen K P, Chiang L C, and Chen I J (2001) A xanthine-based KMUP-1 with cyclic GMP enhancing and K^+ channels opening activities in rat aortic smooth muscle. Br J Pharmacol 134:265-274; Lin R J, Wu B N, Lo Y C, Shen K P, Lin Y T, Huang C H, and Chen I J (2002) KMUP-1 relaxes rabbit corpus cavernosum smooth muscle in vitro and in vivo: involvement of cyclic GMP and K(+) channels, Br J Pharmacol 135:1159-1166). In brief, cells were finally grown in 24-well plates (10^5 cells/well). At confluence, monolayer cells were washed with phosphate-buffered saline and then incubated with KMUP-3 (0.01-100 _M) for 20 min at 37_ in medium. […] The reaction was terminated by replacement of medium with 1 ml of ice-cold 1 N hydrochloric acid. Cells suspensions were sonicated and then centrifuged at 2500 g for 15 min at 4_. Then, the supernatants were lyophilized and the cAMP and cGMP of each sample were determined using commercially available radioimmunoassay kits (GE Healthcare, Little Chalfont, Buckinghamshire, UK).

[3] = system: guinea pig tracheal smooth muscle cells; assay: Measurement of cGMP in TSMCs; format: cell-based; conditions: for amounts of cGMP versus vehicle (FIG. 6): 100 _M, 20 min
Method: as §1, §2

[4] = system: PDE4 purified from human U-937 pronocytic cells; assay: Phosphodiesterase activity, PDE4; format: biochemical; conditions: 10 _M compound, n = 3
Method: Phosphodiesterase Activity: PDE activity was determined by the method of Nicholson et al. (Nicholson C D, Challiss R A, and Shahid M (1991) Differential modulation of tissue function and therapeutic potential of selective inhibitors of cyclic nucleotide phosphodiesterase isonzymes. Trends Pharmaclo Sci 12:19-27). PDE3 and PDE5 purified from human platelets and PDE4 purified from human U-937 pronocytic cells were used. Test compound (10 _M) or vehicle was incubated with 0.2 _g of enzyme and 1 _M cAMP containing 0.01 _M [^3H]cAMP in Tris buffer, pH 7.5, for 20 min at 25_. The reaction was terminated by boiling for 2 min, and the resulting […] was converted to adenosine by the addition of 10 mg/ml snake venom nucleotidase, which is followed by a further incubation at 37_for 10 min. Unhydrolyzed cAMP was bound to AG1-X2 resin, and the remaining [^3H]adenosine in the aqueous phase was quantitated by scintillation counting.

[5] = system: cultured guinea pig tracheal smooth muscle cells; assay: Expression of PKA and PKG (Western blot); format: cell-based; conditions: 1 _M, 30 min
Method: as §1
Expression of PKA and PKG: The expression of PKA and PKG was determined by Western blot as previously described by Wu et al. and Murthy et al. (Wu B N, Lin R J, Lo Y C, Shen K P, Wang C C, Lin Y T, and Chen I J (2004) KMUP-1, a xanthine derivatives, induces relaxation of guinea-pig isolated trachea: the role of the epithelium, cyclic nucleotides and K^+ channels. Br J Pharmacol 142:1105-1114; Murthy K S, Zhou H, and Makhlouf G M (2002) PKA-dependent activation of PDE3A and PDE4 and inhibition of adenylyl cyclase V/VI in smooth muscle. Am J Physiol 282:C508-C517). Guinea pig TSMCs were incubated with KMUP-3 for 30 min. Each of the cell lysates, each containing 1 _g of cellular protein, was electrophoresed in 7.5% SDS-polyacrylamide gel electrophoresis and then transferred to polyvinylidene diflouride membrane (Millipore Corporation, Billerica, Mass.). The membrane was stained with Ponceau S to verify the integrity of the transferred proteins and to monitor the unbiased transfer of all protein samples. The membrane was then washed with 25 ml of TBS (100 mM NaCl, 0.1% and 10 mM Tris-HCl, pH 7.5) for 5 min at room temperature and incubated in 25 ml of blocking buffer (TBS plus 0.1% Tween 20 and 5% nonfat milk) overnight at 4_. In the measurement of protein, the membrane was incubated with appropriate PKARI or PKA1—1— primary antibody (diluted 1:250) in 2 ml of blocking buffer for 1 h at room temperature, washed three times for 5 min each with 15 ml of Tris-buffered saline/Tween 20 (TBS plus 0.1% Tween 20), incubated with horseradish peroxidase-conjugated secondary antibody (1:10,000) in 15 ml of blocking buffer with gentle agitation for 1 h at room temperature, and finally washed three times for 5 min each time with 15 ml of Tris-buffered saline/Tween 20. The membrane was then subjected to enhanced chemiluminescence (GE Healthcare) for the detection of the specific antigen.

SMILES	relaxation in epithelium-intact trachea (FIG. 3(B)) [1]	cAMP accumulation versus vehicle (FIG. 6) [2]	amounts of cGMP versus vehicle (FIG. 6) [3]	also measured
CCCOc1ccccc1-c1nc2nn[nH]c2c(=O)[nH]1 [zaprinast, reference compound]	cause relaxations	not so	significantly enhances	–
Nc1ncnc2c1ncn2C1CCCO1 (stereo not drawn) [SQ 22536, reference compound]	–	–	–	cAMP level [2]: 74.32 ± 7.56 pmol/mg protein
COc1ccc(C2CNC(=O)C2)cc1OC1CCCC1 (stereo not drawn) [rolipram, reference compound]	cause relaxations	significant elevations	not observed	–
Cc1[nH]c(=O)c(C#N)cc1-c1ccncc1 [milrinone, reference compound]	cause relaxations	significant elevations	not observed	–
C=C[C@@]1(C)CC(=O)[C@]2(O)[C@@]3(C)[C@@H](O)CCC(C)(C)[C@@H]3[C@H](O)[C@H](OC(C)=O)[C@@]2(C)O1 [Forskolin, forskolin, reference compound]	–	–	–	cAMP level in presence of SQ 22536 ([2]; 100 _M compound plus SQ 22536 (100 _M) pretreatment): 94.33 ± 3.42 pmol/mg protein; cAMP level [2]: 119.15 ± 5.11 pmol/mg protein
Cn1c(=O)c2[nH]cnc2n(C)c1=O [theophylline, reference compound]	cause relaxations	significant elevations	significantly enhances	PDE4 Inhibition [4]: 7.9±1.2%
Nc1ncnc2c1nc(Br)n2[C@@H]1O[C@@H]2COP(=O)(O)O[C@H]2[C@H]1O [8-Br-cAMP, reference compound]	–	–	–	expression of immunoreactive PKARI protein (FIG. 7(A)) [5]: increased the expression of PKARI
CC1(C)Oc2ccc(C#N)cc2[C@@H](N2CCCC2=O)[C@@H]1O [levcromakalim, reference compound]	displayed relaxation effects	–	–	–
CC(C)Cn1c(=O)n(C)c(=O)c2[nH]cnc21 [IBMX, 3-isobutyl-1-methylxanthine, reference compound]	cause relaxations	–	–	–
O=c1onc2cnc3ccccc3n12 [ODQ, 1H-[1,2,4]oxadiazolo[4,3-a]quinoxalin-1-one, reference compound]	–	–	–	Cyclic GMP level ([3]; 10 _M (ODQ alone), vehicle 1.18 ± 0.06): 1.12 ± 0.03 pmol/mg protein
Nc1nc2c(nc(Br)n2[C@@H]2O[C@@H]3COP(=O)(O)O[C@H]3[C@H]2O)c(=O)[nH]1 [8-Br-cGMP, reference compound]	–	–	–	expression of PKA1—1— (FIG. 7(B)) [5]: increased the expression of PKA1—1—
